This experiment relates to patient (joint, muscle, and arthritic aches and pains). Nature of the experiment: Case studies: patient-reported pain relief with topical Cryogel and with previously tried treatments. Format: in vivo, human.
[1] abbreviates: Case #19: bilateral inflammation of the knees post exercise/running.
[2] abbreviates: Case #21: inflammation of the right knee.
The mark [3] stands for this setting: Case #8: diabetic, peripheral neuropathy pain in feet.
The mark [4] stands for this setting: Case #2: chronic knee pain and muscle soreness.
[5] abbreviates: Case #7: chronic lower back pain, history of RA.

Each structure is given as a SMILES string.

For the compound `CC(=O)Nc1ccc(O)cc1` [Tylenol], the “relief from previously tried treatment (patient-reported)” value (“relief from previously tried treatment” below) under setting [1] is “Limited relief” and the “relief from previously tried treatment” value under setting [2] is “No relief”.

On to `CC(C)C[C@H](CN)CC(=O)O` [LYRICA®], for which the “relief from previously tried treatment” value under setting [3] is on record as “limit pain relief”.

For `COc1ccc2cc([C@H](C)C(=O)O)ccc2c1` [Naproxen], the “relief from previously tried treatment” value reads like this: under setting [4], “mild pain relief”; under setting [5], “limit pain relief”; (Case #13: quadricep tear or strain, right leg muscle pain) “limited relief”.

For the setting “Case #1: RA, spinal fusion C3-C4, immediately post-op while taking prescription pain management medication, 1 no-pain, 10 most pain”, `COc1ccc2c3c1O[C@H]1C(=O)CC[C@@]4(O)[C@@H](C2)N(C)CC[C@]314.Cl` [OxyContin®] gave a pain score of 10.

Consider `CC(C)Cc1ccc(C(C)C(=O)O)cc1` (stereo not shown) [Ibuprofen], for which the “relief from previously tried treatment” value by setting is: under setting [4], “mild pain relief”; (Case #4: chronic knee pain and muscle soreness) “minimal relief”; under setting [5], “limit pain relief”; under setting [3], “limit pain relief”; (Case #9: quad pain associated with exercise) “no relief”; (Case #10: Tennis Elbow of the right elbow) “No relief”. The “relief from previously tried treatment” value is given as “No relief” (Case #11: upper left trapezius muscle pain); “limited relief” (Case #14: right calf muscle pain); “limited relief” (Case #15: ankle swelling and soreness); “limited relief” (Case #16: labrum tear post-surgical repair, pain and soreness); “limited relief” (Case #17: sciatica nerve pain, upper right hip area); “limited relief” (Case #18: burning, stinging pain and inflammation in upper right elbow). Besides, the “relief from previously tried treatment” value by setting is: under setting [1], “limited relief”; under setting [2], “Limited Relief”.

Consider `Clc1ccc2nsnc2c1NC1=NCCN1` [Tizanidine], for which, under setting [5], the “relief from previously tried treatment” value was “limit pain relief”.

With `Cc1ccc(-c2cc(C(F)(F)F)nn2-c2ccc(S(N)(=O)=O)cc2)cc1` [Celebrex], the “relief from previously tried treatment” value under setting [1] is “Limited Relief”.

Turning to `COc1cccc(C2(O)CCCCC2CN(C)C)c1` (stereo not shown) [Tramadol], under setting [5], the “relief from previously tried treatment” value is recorded as “limit pain relief”.

Consider `COc1ccc2cc([C@H](C)C(=O)[O-])ccc2c1.[Na+]` [ALEVER], for which the “relief from previously tried treatment” value (Case #5: sore/stiff neck) is “limited relief”.

(Values after US20260000686A1, “CANNABIDIOL COMPOSITIONS FOR THE TREATMENT OF INFLAMMATION” (RevRx, LLC, priority 2019, published 2026).)
